Source: PubChem BioAssay AID1996
In brackets after ≈: the same amount, converted by molar mass.

Conditions: buffer; pH 7.4; 200.0 µM

| SMILES | solubility kinetic |
| --- | --- |
| O=C(COc1ccccc1Cl)NCCCNC(=O)c1cnccn1 | 51.5 µg/mL (≈ 148 µM) |
| Cc1[nH]c2c(ccc3cccnc32)c1C | 19.4 µg/mL (≈ 98.9 µM) |
| Clc1ccc(CN2CCCCCC2)cc1Cl | 9 µg/mL (≈ 34.9 µM) |
| Cc1cccc(OCc2nnc(SC(C)C(=O)Nc3ccc(N4CCOCC4)cc3)o2)c1 (stereo not given) | > 68.2 µg/mL |
| Clc1ccc(Nc2ccc3ccccc3n2)cc1 | < 0.3 µg/mL |
| CN=C1S/C(=C\c2ccc(SC)cc2)C(=O)N1C | 1.4 µg/mL (≈ 5.03 µM) |
| OCCNC(=S)Nc1ccc2c(c1)OCCO2 | 37 µg/mL (≈ 145 µM) |
| Cc1cc(C)n(CC(=O)N2CCc3ccccc32)c(=O)c1C#N | 7 µg/mL (≈ 22.8 µM) |
| CC(C)(C)N(Cc1cc2ccccc2[nH]c1=O)C(=O)c1cccc([N+](=O)[O-])c1 | 1.4 µg/mL (≈ 3.69 µM) |
| O=C(CC1CCCC1)Nc1ccc(Cl)c(S(=O)(=O)N2CCOCC2)c1 | 54.7 µg/mL (≈ 141 µM) |
| COc1cc2c(cc1OC)CN(CC(=O)Nc1ccc(F)cc1)CC2 | 39 µg/mL (≈ 113 µM) |
| Cc1c(C)n(CCc2c[nH]c3ccccc23)ccc1=O | 38.5 µg/mL (≈ 145 µM) |
| COc1ccccc1CNC(=O)CC1Sc2ccccc2NC1=O (stereo not given) | 1.7 µg/mL (≈ 4.96 µM) |
| Cc1ccn2c(NC3CCCC3)c(-c3cccs3)nc2c1.Cl | 14.7 µg/mL |
| COc1ccc(CN2C(=O)c3ccc(C(=O)O)cc3C2=O)cc1 | > 46.7 µg/mL |
| CN1c2ccccc2C(=O)/C(=C\Nc2ccc(F)cc2F)S1(=O)=O | 1 µg/mL (≈ 2.85 µM) |
| COCC(=O)Nc1ccc(S(=O)(=O)Nc2nccs2)cc1 | 47 µg/mL (≈ 144 µM) |
| C[n+]1cc(-c2ccccc2)oc1-c1ccccc1 | 24.4 µg/mL |
| O=C(O)c1ccccc1CSc1ncccc1C(=O)O | > 43.4 µg/mL |
| NS(=O)(=O)c1cccc(NC(=O)c2cccc(S(=O)(=O)N3CCCCCC3)c2)c1 | 49.9 µg/mL (≈ 114 µM) |
| CC1CN(Cc2ccccc2)C(C)CC1O (stereo not given) | > 32.9 µg/mL |
| CCOc1ccc(-c2cnc(N)n2C)cc1 | 31.8 µg/mL (≈ 146 µM) |
| CC(C)CN1CCCC(N2CCN(c3cccc(Cl)c3)CC2)C1 (stereo not given) | 39.8 µg/mL (≈ 118 µM) |
| O=C(/C=C/c1ccc2c(c1)OCO2)N1CCCCC1 | > 38.9 µg/mL |

| SMILES | solubility kinetic |
| --- | --- |
| CC12CCC(=O)N1C(C(=O)Nc1ccccc1F)CS2 (stereo not given) | > 44.2 µg/mL |
| COc1ccc(C(=O)C(C)OC(=O)CNC(=O)c2ccco2)cc1 (stereo not given) | > 49.7 µg/mL |
| COc1ccc2c(c1)Sc1ccccc1N2 | 2.7 µg/mL (≈ 11.8 µM) |
| O=C(Nc1cccc(Cl)c1)C1COc2ccccc2O1 (stereo not given) | 3.1 µg/mL (≈ 10.7 µM) |
| Cc1nn(C)c(C)c1NC(=O)COc1ccc(Cl)cc1 | > 44.1 µg/mL |
| N#CCc1ccc(OC(=O)c2cccnc2)cc1 | > 35.7 µg/mL |
| COCCNC(=O)Cn1nc(-c2ccccc2F)ccc1=O | > 45.8 µg/mL |
| Nc1nc(NCc2ccco2)nc(NCCO)c1[N+](=O)[O-] | > 44.1 µg/mL |
| Cc1cc(C)c[n+](C(C)C(=O)c2ccc(Cl)cc2)c1.[Br-] (stereo not given) | > 53.2 µg/mL |
| Cc1ccc(C)c(NC(=O)c2nc(Cl)ccc2Cl)c1 | 3.2 µg/mL (≈ 10.8 µM) |
| CN(C(=O)CSc1cccc[n+]1[O-])C1CCCCC1 | > 42.1 µg/mL |
| CC1(C)OC(=O)C(=NNc2ccccc2C(=O)O)C(=O)O1 | > 43.8 µg/mL |
| Cc1cccn2cc(CCNC(=O)Cc3cccs3)nc12 | > 44.9 µg/mL |
| O=C(COC(=O)CNC(=O)c1cc(Cl)cc([N+](=O)[O-])c1)NC(=O)NCc1ccco1 | 61.7 µg/mL (≈ 141 µM) |
| CCC(CC)C(=O)NCc1ccc(OC)cc1 | 32.7 µg/mL (≈ 139 µM) |
| CC12CCC(=O)N1C(C(=O)N1CCN(c3ccc([N+](=O)[O-])cc3)CC1)CS2 (stereo not given) | 30.7 µg/mL (≈ 78.6 µM) |
| Cl.c1ccc(CNCc2ccco2)cc1 | 33.5 µg/mL |
| Cn1c([O-])c(Cc2cccc(Cl)c2Cl)c(=O)n(C)c1=O.[NH4+] | 43.6 µg/mL |
| Cc1ccccc1C(=O)OCc1cnc(Cl)s1 | 1.4 µg/mL (≈ 5.23 µM) |
| Cc1ccc(OCc2cc(C(=O)N3CCCC3)no2)cn1 | > 43.1 µg/mL |
| Cc1noc(NS(=O)(=O)c2ccc(NC(=O)COc3ccc(C#N)cc3)cc2)c1C | > 64 µg/mL |
| CCOc1ccc(C(=O)N2CCn3c2nc2ccccc23)cc1 | 6.4 µg/mL (≈ 20.8 µM) |
| COc1ccc(NC(=O)COc2ccc(C)cc2)c([N+](=O)[O-])c1 | < 0.3 µg/mL |
| Cc1cc2occ(CC(=O)NC3(C)CCS(=O)(=O)C3)c2cc1C (stereo not given) | > 50.3 µg/mL |

| SMILES | solubility kinetic |
| --- | --- |
| COCC1CCCN(C(=O)c2ccc3oc(C(C)C)nc3c2)C1 (stereo not given) | 42.2 µg/mL (≈ 133 µM) |
| O=C(NCc1ccccc1)c1cnc(Cl)c(Cl)c1 | 35.9 µg/mL (≈ 128 µM) |
| COc1ccc(S(=O)(=O)NCCc2ccccn2)cc1 | > 43.9 µg/mL |
| Cc1ccc(OCC(=O)Nc2ccc3oc(=O)ccc3c2)cc1 | 1.7 µg/mL (≈ 5.5 µM) |
| COP(=O)(OC)/C(C=O)=N/Nc1ccc([N+](=O)[O-])cc1 | > 45.2 µg/mL |
| CNc1oc(-c2ccccc2)nc1S(=O)(=O)c1ccc(C)cc1 | 5.3 µg/mL (≈ 16.1 µM) |
| O=C(CSc1nc2ncc(Cl)cc2[nH]1)N1CCC(Cc2ccccc2)CC1 | 1 µg/mL (≈ 2.49 µM) |
| O=S(=O)(c1ccc(F)cc1)N1CCCC1 | > 34.4 µg/mL |
| COc1ccc(Cl)cc1NC(=O)NCc1cccnc1 | > 43.8 µg/mL |
| O=C(NCc1ccccn1)c1cccc(S(=O)(=O)N2CCc3ccccc32)c1 | 21 µg/mL (≈ 53.4 µM) |
| Cc1[nH]cnc1C(=O)N/N=C/c1c(Cl)cccc1Cl | > 44.6 µg/mL |
| CN(c1ccc(OCCOc2ccccc2Cl)cc1)S(=O)(=O)c1ccccc1 | 6.2 µg/mL (≈ 14.8 µM) |
| O=C(NCc1cccnc1)C1CC(c2ccccc2Cl)=NO1 (stereo not given) | > 47.4 µg/mL |
| Cc1ccc(NC(=O)C2C3CCC(O3)C2C(=O)O)cc1C (stereo not given) | > 43.4 µg/mL |
| CCCCCC#CCN1CCN(C23CC4CC(CC(C4)C2)C3)CC1 | 42.8 µg/mL (≈ 130 µM) |
| Cc1ccccc1C(=O)Nc1c(C)[nH]c(=O)[nH]c1=O | > 38.9 µg/mL |
| S=C(NCc1ccccc1)N1CCc2ccccc2C1 | 5.6 µg/mL (≈ 19.8 µM) |
| Cc1cc(C)c(NC(=O)CC(=O)c2ccccc2)c(Cl)c1 | 3.5 µg/mL (≈ 11.6 µM) |
| NC(=O)COC(=O)c1cc(=O)[nH]c2ccccc12 | > 36.9 µg/mL |
| O=C(O)c1cccc([N+](=O)[O-])c1C(=O)Nc1ccc2ccccc2c1 | 35.4 µg/mL (≈ 105 µM) |
| CCOC(=O)c1sc(-c2ccc(Cl)cc2Cl)nc1O | 28.2 µg/mL (≈ 88.6 µM) |
| CS(=O)(=O)Nc1ccccc1C(=O)NCCSc1ccccc1 | 51 µg/mL (≈ 146 µM) |
| CCc1noc(C)c1C(=O)OCC(=O)c1ccc(NC(C)=O)cc1F | 9.1 µg/mL (≈ 26.1 µM) |
| c1ccc2c3c([nH]c2c1)C1(CCNCC1)NCC3 | 34.7 µg/mL (≈ 144 µM) |

| SMILES | solubility kinetic |
| --- | --- |
| Clc1nc(NCc2ccco2)nc(N2CCCCC2)n1 | 0.3 µg/mL (≈ 1.02 µM) |
| CC1CN(C(=O)CS(=O)(=O)Cc2ccccc2)CC(C)O1 (stereo not given) | > 46.7 µg/mL |
| O=C(c1ccc2ccccc2n1)N1CCN(c2ccccn2)CC1 | > 47.8 µg/mL |
| NC(=O)NNC(=S)Nc1cccc2ccccc12 | > 39 µg/mL |
| Br.N=C(N)SCCc1cccc(CCSC(=N)N)c1 | > 66.6 µg/mL |
| CC(=O)N(Cc1ccccn1)Cc1ccco1 | > 34.5 µg/mL |
| COc1ccccc1/C=C/C1NC(=O)NC(C)=C1C(=O)OC(C)C (stereo not given) | 0.4 µg/mL (≈ 1.21 µM) |
| Cc1ccccc1NC(=S)N1CCC(NC(=O)c2ccco2)CC1 | 47.1 µg/mL (≈ 137 µM) |
| CCn1c(Cc2cccs2)nnc1SCC(=O)NC1CC1 | > 48.4 µg/mL |
| COC(=O)C(Cc1ccccc1)NC(=O)CCC(=O)NC(C)CCc1ccccc1 (stereo not given) | > 61.6 µg/mL |
| Nc1c(N(CCCO)C(=O)C2CCCCC2)c(=O)[nH]c(=O)n1Cc1ccccc1 | > 60.1 µg/mL |
| O=C(COC(=O)c1cccs1)NCCc1ccc(F)cc1 | 42.2 µg/mL (≈ 137 µM) |
| CC(=O)NCCN1C(=O)S/C(=C\c2cccs2)C1=O | > 44.5 µg/mL |
| O=C(COC(=O)Cn1cnc2ccccc2c1=O)Nc1ccccc1OC(F)F | 15.8 µg/mL (≈ 39.2 µM) |
| Cn1nccc1NC(=O)Nc1ccc(Cl)cc1 | > 37.6 µg/mL |
| S=c1[nH]nc(CSCCOc2ccc(Cl)cc2Cl)o1 | > 50.6 µg/mL |
| Nc1cc(=O)[nH]c(=O)n1-c1ccc(Cl)cc1 | > 35.6 µg/mL |
| COCCNC(=O)c1ccc2c(c1)ncn2-c1cccc(C)c1 | > 46.4 µg/mL |
| CCN1C=C(C(=O)OC)C(c2cccc(OC)c2OC)C(C(=O)OC)=C1 | 8.4 µg/mL (≈ 23.2 µM) |
| c1ccc2cc(CNCc3cccc4ccccc34)ccc2c1 | 4.1 µg/mL (≈ 13.8 µM) |
| CN(C)CCC(=O)C(Cc1ccccc1)c1ccccc1.Cl (stereo not given) | 44.7 µg/mL |
| O=C1C(C=Nc2ccc(F)cc2)=C(O)c2ccccc21 | < 0.6 µg/mL |
| Cn1c(COc2ccccc2Br)nc2ccccc21 | 1.4 µg/mL (≈ 4.41 µM) |
| COCc1cc(=O)[nH]c(/N=C(\N)Nc2c(F)cccc2F)n1 | 40.6 µg/mL (≈ 131 µM) |

| SMILES | solubility kinetic |
| --- | --- |
| COC(=O)c1cccc(NC(=S)N2CCN(C)CC2)c1 | 41.9 µg/mL (≈ 143 µM) |
| Clc1ccc2c(c1)Nc1ccccc1CC2 | < 0.5 µg/mL |
| O=C(/C=C/c1ccc(F)cc1)N1CC[C@@]2(O)CCCC[C@H]2C1 | > 45.5 µg/mL |
| Nc1ccc(Oc2ccc3c(c2)C(=O)NC3=O)cc1 | 35.5 µg/mL (≈ 140 µM) |
| COC(=O)c1cc(S(=O)(=O)N2CCCC2=O)c(Cl)cc1Cl | > 52.8 µg/mL |
| Cc1ccc(NC(=O)CN2CCOCC2)cc1 | > 35.1 µg/mL |
| CCOC(=O)Cc1csc(NC(=O)CN2CCOCC2)n1 | 40.1 µg/mL (≈ 128 µM) |
| CCCC1NC(C(=O)O)Cc2c1[nH]c1ccccc21 (stereo not given) | 37.3 µg/mL (≈ 144 µM) |
| COc1ccc(OCC(=O)NC2CCCc3ccccc32)cc1 (stereo not given) | 42.4 µg/mL (≈ 136 µM) |
| CCCCCOc1ccc(C(=O)CCC(=O)NC(C)c2ccc(S(N)(=O)=O)cc2)cc1 (stereo not given) | 10.9 µg/mL (≈ 24.4 µM) |
| NC(=O)C1CCN(CC(=O)NC(=O)NC2CCCC2)CC1 | > 44.5 µg/mL |
| COc1ccnc2c1c(=O)n(Cc1cccc(F)c1)c(=O)n2C | 37.9 µg/mL (≈ 120 µM) |
| CC(=O)c1sc(=S)n(-c2ccccc2)c1C | 9.4 µg/mL (≈ 37.7 µM) |
| Cc1ccc(OC(=O)c2cncc(Br)c2)c(C)c1 | 6.8 µg/mL (≈ 22.2 µM) |
| COc1ccc(C(CCO)NC(=O)c2cccs2)cc1OC (stereo not given) | > 48.2 µg/mL |
| Cn1c(=O)oc2cc(S(=O)(=O)N3CCc4ccccc43)ccc21 | 0.5 µg/mL (≈ 1.51 µM) |
| O=C(Nc1ccncc1)Nc1ccncc1 | > 32.1 µg/mL |
| CN(C(=O)CSc1nnc(-c2ccc(F)cc2)n1C)C1CCS(=O)(=O)C1 (stereo not given) | > 59.8 µg/mL |
| CC(NC=O)c1nc2ccccc2n1CCc1ccccc1 (stereo not given) | 43.9 µg/mL (≈ 150 µM) |
| Cc1ccc(N2CCN(c3ncccc3[N+](=O)[O-])CC2)c(C)c1 | 1.4 µg/mL (≈ 4.48 µM) |
| CCOc1ccc(S(=O)(=O)Nc2cnc3ccccc3c2)cc1 | > 49.3 µg/mL |
| N#Cc1cccc(NC(=O)CCN2C(=O)C3CCCCC3C2=O)c1 (stereo not given) | > 48.8 µg/mL |
| CC(=O)c1c(C)n(CC(=O)NCc2ccco2)c2ccccc12 | 18.5 µg/mL (≈ 59.6 µM) |
| O=C(OCC(O)COc1ccccc1)c1ccc([N+](=O)[O-])cc1 (stereo not given) | 43.7 µg/mL (≈ 138 µM) |
